# How the values were obtained:
# [1] = system: platelets from healthy donors; experiment: IgG binding to platelets by flow cytometry after incubation with VITT sera; assay type: cell-based
# [2] = system: washed platelets from healthy donors; experiment: Heparin induced platelet activation assay (HIPA) with modifications, VITT sera; assay type: cell-based; details: for platelet activation by VITT sera in the presence of the additive: result in words
# Description: (§1) A commercially available IgG-Enzyme Immune Assay (EIA) was used in accordance to manufacturer's instructions (Hyphen Biomed, Neuville-sur-Oise, France). Per manufacturer's recommendations, a sample was considered reactive if the optical density (OD) was ≥0.500. The ability of sera to activate platelets was tested using the functional assay heparin induced platelet aggregation assay (HIPA) as previously described. In brief, serum was tested with washed platelets (wPLTs) from four different healthy donors in the absence (buffer alone) or in the presence of unfractionated heparin (0.2 IU/mL and 100 IU/mL, [Ratiopharm, Ulm, Germany]). Reactions were placed in microtiter wells containing spherical stir bars and stirred at approximately 500 revolutions per minute (rpm). Wells were examined optically at five-minutes (min) interval for loss of turbidity. A serum was considered reactive (positive) if a shift from turbidity to transparency occurred within 30 min in at least two platelet suspensions. Observation time was 45 min. Each test included a diluted serum from a patient with HIT as a weak positive control, collagen (5 μg/mL) as strong positive control and a serum from a healthy donor as a negative control.
# To investigate the ability of patients sera to activate platelets, the HIPA assay was used with several modifications. Sera were incubated with washed platelets in the presence of I) buffer, II) 0.2 IU/mL LMWH, III) 100 IU/mL UFH, IV) an Fc gamma receptor IIa (FcγRIIA)-blocking monoclonal antibody (mAb IV.3), VI) 30 mg/mL IVIG, VII) 25 μg/mL PF4, VIII) 50 μg/mL Spike-RBD, IX) PF4/Spike-RBD complexes, X) PF4+RBD or XI) ChAdOx1 nCoV-19 (XII). Conditions with PF4 and RBD were also repeated in the presence of high concentration of heparin (100 IU/mL UFH). […] (FIG. 5B). […] Antibody-mediated platelet activation was inhibited when low molecular weight heparin (LMWH) was added at low concentrations by testing three sera.
# [3] = system: washed platelets from healthy donors; experiment: Antibody-mediated procoagulant platelets (CD62p/PS positive) by flow cytometry, VITT sera; assay type: cell-based; details: for FI CD62p/PS positive PLTs: VITT sera with washed platelets, 0.2 IU/mL LMWH, high concentration UFH, mAb IV.3, high concentrations of IgG, PF4 or Spike-RBD, sera alone 22.94±6.14
# [4] = system: washed platelets from healthy donors; experiment: Procoagulant platelets induced by HIT patient sera, washed platelets, flow cytometry; assay type: cell-based; details: for generation of procoagulant platelets by patient sera in the presence of the additive: HIT, washed platelets (FIG. 8) or PRP (FIG. 9), 0.2 IU/mL LMWH, high concentration UFH, PF4, IV.3, result in words
# Description: Prior to usage, all sera were heat-inactivated at 56° C. for 30 min, followed by a sharp centrifugation step at 5,000 g. The supernatant was collected in a fresh tube. For determination of procoagulant platelets, 5 μL serum was incubated with 25 μL washed platelets ([…]) for 1 h under rotating conditions at RT. Where indicated, cell suspensions were preincubated with PF4 (10 μg/ml) and Heparin (0.2 or 100 IU/ml). Afterwards, samples were washed once (7 min, 650 g, RT, without brake) and gently resuspended in 75 μL of phosphate-buffered saline (PBS, Biochrom, Berlin, Germany). Platelets were then stained with Annexin V-FITC and CD62-APC (Immunotools, Friesoythe Germany) and directly analyzed by flow cytometry (FC). Test results were determined as fold increase of the percentage of double PS/CD62p positive events in platelets upon incubation with patients' sera compared to the baseline.
# 37.5 μl wPLTs/PRP were supplemented with 1 μl of 10 IUs heparin (final concentration 0.2 IUs) or 1 μl of 5000 IUs heparin (final concentration 100 IUs) and 5 μL serum/IgG from HIT patients or control serum/IgG. Samples were filled up with PBS to a final volume of 50 μl and incubated for 1 hour under rotating conditions at RT. Afterwards, 5 μl of the PLT suspension were transferred into a final volume of 100 μL of Hank's balanced salt solution (HBSS) containing 137 mM NaCl, 1.25 mM CaCl2), 5.5 mM glucose, [Carl-Roth, Karlsruhe, Germany]) and incubated with 1 μL anti-CD62p-APC (BD, San Jose, USA), 1 μL Annexin-FITC (Immunotools, Friesoythe, Germany) and 2 μL anti-CD42a-PerCP (BD, San Jose, USA) for 30 min at RT in the dark. PLTs that were treated with thrombin receptor activating peptide (TRAP-6, [10 μM, 30 min at RT]) and ionomycin [5 μM, 15 min at RT] (both Sigma-Aldrich, St. Louis, USA) served as positive controls. Afterwards, PLTs were resuspended with HBSS to a final volume of 500 μL and immediately assessed via flow cytometry ([FC]), Navios, Beckman-Coulter, Brea, USA).
# To investigate the mechanisms of HIT antibody-induced changes on PLTs, […] wPLTs/PRP were pretreated with Fc-gamma-RIIA blocking monoclonal antibody (moAb) anti-CD32 (moAb IV.3; Stemcell™ technologies, Vancouver, Canada) or a monoclonal isotype control ([SC-2025] Santa Cruz Biotechnology, Dallas, USA) for 30 min at RT prior to HIT serum/IgG treatment.
# [5] = system: PRP from healthy individuals; experiment: Procoagulant platelets in platelet rich plasma (PRP) with patient sera/HIT IgG, flow cytometry; assay type: cell-based; details: for procoagulant PLT formation by HIT IgG fractions: PRP
# Description: IgG fractions were isolated from HIT as well as from control sera by the use of a commercially available IgG-purification-kit (Melon™-Gel IgG Spin Purification Kit, Thermo Fisher Scientific, Waltham, USA) as recommended by the manufacturers. In brief, heat inactivated serum was diluted 1:10 in purification buffer and incubated with the kit specific Gel IgG Purification Support over four cycles for 10 min. Subsequently, periodically performed centrifugation steps through a 10 μm pore size filter tube were performed for 1 min at 5000×g. The flow throw was collected into 100 kDa pore sized centrifugal filters (Amicon Ultra-4, Merck Millipore, Cork, Ireland) with subsequent concentration to the initial volume of the used serum sample via centrifugation (10-15 min, 2000×g, 4° C., with brake). IgG concentrations were measured by excitation using a NanoDrop One at a wavelength of […] (VWR, Bruchsal, Germany).
# For determination of procoagulant platelets in PRP, sera were prepared as described above. For PRP preparation, venous blood from healthy individuals was withdrawn into vacutainers containing sodium citrate 0.105 M (3.2%) (BD, Plymouth, UK) and allowed to rest for 20 min at RT. PRP was prepared by centrifugation (20 min, 120 g, RT) and adjusted with autologous platelet poor plasma (PPP, [10 min, 2000 g, RT]) to a PLT count of 300×10^6/ml. […] Afterwards, samples were processed as described for washed PLTs and analysed by flow cytometry (FC). Test results were determined as fold increase of the percentage of double PS/CD62p positive events in platelets upon incubation with patients' sera compared to the baseline.
# 37.5 μl wPLTs/PRP were supplemented with 1 μl of 10 IUs heparin (final concentration 0.2 IUs) or 1 μl of 5000 IUs heparin (final concentration 100 IUs) and 5 μL serum/IgG from HIT patients or control serum/IgG. […] Afterwards, PLTs were resuspended with HBSS to a final volume of 500 μL and immediately assessed via flow cytometry ([FC]), Navios, Beckman-Coulter, Brea, USA).
# PF4/heparin complexes = target: T1, PF4/heparin complexes (Homo sapiens, UniProt P02776); experiment: IgG PF4/heparin EIA with sera from VITT patients; assay type: binding; details: VITT sera (8/8), in the presence of high concentration of heparin; without: 2.591±0.642; p<0.0001
# T1 construct: purchased Hyphen Biomed, Neuville-sur-Oise, France
# T1 sequence (P02776 32-101): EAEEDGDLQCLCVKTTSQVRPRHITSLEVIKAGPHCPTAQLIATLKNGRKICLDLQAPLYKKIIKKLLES
# Description: as §1
Substance,change in IgG binding to platelets in the presence of the additive ([1]; result in words),"Median time to aggregate ([2]; VITT sera with washed platelets, 0.2 IU/mL LMWH, 25 μg/mL PF4, mAb IV.3 or 30 mg/mL IVIG, buffer alone 5 min, observation time 45 min) [min]",platelet activation by VITT sera in the presence of the additive [2],FI CD62p/PS positive PLTs [3] [fold increase],"procoagulant phenotype induced by diluted VITT sera ([3]; diluted sera (from 1:64), result in words)",generation of procoagulant platelets by patient sera in the presence of the additive [4],"procoagulant phenotype, sera from HIPA negative patients with PRP ([5]; in presence of PF4, when treated with 0.2 IU/ml Heparin (LMWH))",mean optical density [OD] of IgG antibodies against PF4/heparin complexes (PF4/heparin complexes) [OD],"FI of MFI IgG binding to platelets ([1]; heparin at high concentrations (100 IU/ml), without heparin 4.39±1.15, p 0.016) [fold increase]","FI of MFI of IgG binding to platelets ([1]; heparin at low concentrations (0.2 U/mL), without heparin 4.39±1.15, p 0.688) [fold increase]","CD62p/PS positive PLTs, mean %±SEM ([4]; HIT sera with wPLTs, supratherapeutic (Hep. 100 IUs) doses of heparin) [%]","CD62p/PS positive PLTs, mean percent [mean %]±SEM ([4]; HIT sera with wPLTs, therapeutic (0.2 IUs) heparin, HC sera 1±0) [%]",procoagulant PLT formation by HIT IgG fractions ([5]; supratherapeutic (100 IUs) doses of heparin),procoagulant PLT formation by HIT IgG fractions ([5]; therapeutic doses (0.2 IUs) heparin)
PF4: small cytokine of the CXC chemokine family released from alpha-granules of activated platelets,Only one serum showed increased binding,5,only in the presence e of PF4,37.07±23.73,only in the presence e of PF4,increase of procoagulant platelets,Strong increase,,,,,,,
heparin,,,All reactions were inhibited,1.92±0.96,,completely inhibited,,0.176±0.073,1.51±0.66,3.60±2.01,1.18±0.28,44.99±6.26,not observed,showed the capability to induce procoagulant PLTs

# Source: patent publication US20240069044A1, “METHOD FOR DIAGNOSING A PREDISPOSITION OF A LIVING BEING TO DEVELOP THROMBOCYTOPENIA” (priority 2021, published 2024)
